Activity calls are given as the source filed them.
Tests used:
[1] = target: T1, High affinity choline transporter 1 (Homo sapiens, UniProt Q9GZV3); assay: CHT inhibitors, dose response, cell-based, 5-point CRC, membrane potential dye (AID 504840); assay type: functional
T1 sequence (Q9GZV3 whole entry): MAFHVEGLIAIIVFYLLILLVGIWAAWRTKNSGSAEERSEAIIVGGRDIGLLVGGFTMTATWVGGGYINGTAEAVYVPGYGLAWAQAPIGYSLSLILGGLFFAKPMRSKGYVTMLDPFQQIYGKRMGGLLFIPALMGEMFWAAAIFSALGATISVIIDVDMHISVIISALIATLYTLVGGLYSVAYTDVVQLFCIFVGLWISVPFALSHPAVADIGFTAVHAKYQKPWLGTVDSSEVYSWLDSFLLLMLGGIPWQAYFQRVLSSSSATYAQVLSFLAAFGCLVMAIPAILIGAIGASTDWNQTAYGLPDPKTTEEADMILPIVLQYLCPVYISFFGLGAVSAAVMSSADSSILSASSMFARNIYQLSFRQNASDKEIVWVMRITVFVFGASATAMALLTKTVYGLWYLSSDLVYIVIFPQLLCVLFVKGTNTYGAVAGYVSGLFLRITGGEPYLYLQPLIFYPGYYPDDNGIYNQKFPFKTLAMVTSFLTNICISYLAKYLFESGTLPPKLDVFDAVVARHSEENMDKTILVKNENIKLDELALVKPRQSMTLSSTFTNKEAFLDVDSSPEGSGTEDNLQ

[2] = target: T1, High affinity choline transporter 1; assay: CHT inhibitors, dose response, cell-based, 10-point CRC, membrane potential dye (AID 588401); assay type: functional;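 further: membrane potential dye fluorescence of choline-evoked depolarization via CHT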
[3] = target: T2, Protein disulfide-isomerase (Homo sapiens, UniProt P07237); assay: PDI inhibitors, insulin aggregation turbidity, dose response, biochemical, absorbance, cherry-picked samples (AID 602350); assay type: functional
T2 sequence (P07237 whole entry): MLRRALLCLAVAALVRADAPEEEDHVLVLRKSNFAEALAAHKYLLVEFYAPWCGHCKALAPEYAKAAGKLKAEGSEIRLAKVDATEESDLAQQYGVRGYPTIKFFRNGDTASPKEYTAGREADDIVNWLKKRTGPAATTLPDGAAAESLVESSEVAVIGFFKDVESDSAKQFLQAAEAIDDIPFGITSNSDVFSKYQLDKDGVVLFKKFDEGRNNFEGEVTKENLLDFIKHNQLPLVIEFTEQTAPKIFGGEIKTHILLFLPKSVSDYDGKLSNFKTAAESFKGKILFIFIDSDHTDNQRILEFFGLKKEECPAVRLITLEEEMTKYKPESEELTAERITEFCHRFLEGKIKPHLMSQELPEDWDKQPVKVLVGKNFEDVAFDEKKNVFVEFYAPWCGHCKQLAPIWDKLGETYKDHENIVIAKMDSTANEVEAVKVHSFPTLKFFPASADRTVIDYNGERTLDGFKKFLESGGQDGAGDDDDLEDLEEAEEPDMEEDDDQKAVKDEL

[4] = target: T2, Protein disulfide-isomerase; assay: PDI inhibitors, insulin turbidity readout, dose response, biochemical, absorbance, cherry-picked samples, set 2 (AID 624274); assay type: functional
[5] = target: Neuropeptides B/W receptor type 1 (Homo sapiens, UniProt P48145); assay: GPR7 antagonist potency, late-stage follow-up, cell-based, fluorescence, dose response, set 5 (AID 588566); assay type: functional
Chain of Neuropeptides B/W receptor type 1 (P48145 whole entry): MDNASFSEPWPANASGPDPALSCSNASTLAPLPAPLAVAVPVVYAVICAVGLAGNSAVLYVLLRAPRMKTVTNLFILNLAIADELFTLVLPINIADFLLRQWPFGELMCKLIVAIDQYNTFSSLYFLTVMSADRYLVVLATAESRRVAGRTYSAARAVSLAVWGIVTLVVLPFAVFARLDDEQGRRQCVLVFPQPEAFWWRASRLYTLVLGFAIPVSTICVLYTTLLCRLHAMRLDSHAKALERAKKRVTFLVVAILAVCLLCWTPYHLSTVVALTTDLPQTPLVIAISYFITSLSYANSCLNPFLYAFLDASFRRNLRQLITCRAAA

[6] = target: Melanin-concentrating hormone receptor 1 (Homo sapiens, UniProt Q99705); assay: Late-stage fluorescence-based counterscreen for antagonists of the G-protein coupled receptor 7 (GPR7): cell-based dose response assay to identify antagonists of the melanin-concentrating hormone receptor 1 (MCHR1) Set 5.; assay type: functional
[7] = system: Streptococcus sp. 'group A'; assay: growth inhibition of control SK(-) GAS strain, dose response, counter-screen for streptokinase expression inhibitor project, luminescence, kanamycin, BacTiterGlo, confirmation (AID 1900); assay type: functional, organism-based
Streptokinase A = target: T3, Streptokinase A (Streptococcus pyogenes serotype M1, UniProt P10520); assay: S. pyogenes streptokinase expression inhibitors, potency, dose response, plasminogen activation absorbance, OD405 (AID 1914); assay type: functional, Streptococcus pyogenes M1 GAS;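 further: secreted streptokinase activity via plasminogen activation per viability signal from cell pellet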
T3 sequence (P10520 whole entry): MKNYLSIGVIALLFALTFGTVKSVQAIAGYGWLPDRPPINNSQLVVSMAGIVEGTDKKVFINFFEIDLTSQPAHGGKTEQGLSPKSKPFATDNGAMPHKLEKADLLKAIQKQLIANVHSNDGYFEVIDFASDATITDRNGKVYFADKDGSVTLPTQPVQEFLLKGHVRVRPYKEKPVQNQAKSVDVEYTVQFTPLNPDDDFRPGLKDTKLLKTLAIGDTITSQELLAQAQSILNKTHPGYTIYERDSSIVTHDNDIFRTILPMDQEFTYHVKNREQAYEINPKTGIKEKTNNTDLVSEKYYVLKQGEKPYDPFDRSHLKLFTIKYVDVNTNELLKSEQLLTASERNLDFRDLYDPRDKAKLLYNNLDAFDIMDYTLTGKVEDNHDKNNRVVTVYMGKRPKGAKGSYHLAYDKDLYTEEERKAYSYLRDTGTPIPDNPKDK

[8] = growth suppression of PTEN-null colon cells, dose response, cell-based, HCT116 PTEN knockout (AID 1047); assay type: functional;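 further: HCT116 colon tumor cells with PTEN knocked out; cells exposed to compound for 60 hours before readout; potency for loss of cell viability measured by luminescence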
[9] = target: T4, Sphingosine 1-phosphate receptor 4 (Homo sapiens, UniProt O95977); assay: Late stage fluorescence dose response cell-based screening assay for antagonists of the Sphingosine 1-Phosphate Receptor 4 (S1P4). [Related pubchem assays: 1524 (Confirmation screen (S1P4 antagonists).), 1510 (Primary screen (S1P4 antagonists).), 1853 (Summary AID (S1P4 antagonists).), 1692 (Dose response screen (S1P4 antagonists).)]; assay type: functional
T4 sequence (O95977 whole entry): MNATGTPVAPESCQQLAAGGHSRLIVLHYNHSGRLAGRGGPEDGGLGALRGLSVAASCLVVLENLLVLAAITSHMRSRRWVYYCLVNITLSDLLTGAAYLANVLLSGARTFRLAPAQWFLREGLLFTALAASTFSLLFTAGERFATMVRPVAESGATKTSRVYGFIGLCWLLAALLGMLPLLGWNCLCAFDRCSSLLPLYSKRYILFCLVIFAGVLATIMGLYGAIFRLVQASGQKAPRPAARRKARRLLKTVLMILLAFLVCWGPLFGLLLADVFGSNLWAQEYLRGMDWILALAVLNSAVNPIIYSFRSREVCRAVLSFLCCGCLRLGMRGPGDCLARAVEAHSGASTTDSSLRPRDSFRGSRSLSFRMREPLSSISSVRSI

[10] = growth suppression of beta-catenin-knockout colon cells, dose response, cell-based, HCT116, human colon tumor (AID 1045); assay type: functional;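 further: HCT116 colon tumor cells with beta catenin knocked out; cells exposed to compound for 60 hours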
[11] = target: T4, Sphingosine 1-phosphate receptor 4; assay: Fluorescence dose response cell-based high throughput screening assay for antagonists of the Sphingosine 1-Phosphate Receptor 4 (S1P4). [Related pubchem assays: 1524 (Confirmation in triplicates.), 1510 (Primary screen.)]; assay type: functional
[12] = target: Sphingosine 1-phosphate receptor 1 (Homo sapiens, UniProt P21453); assay type: functional;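 further: Tango beta-arrestin reporter U2OS cells stimulated with S1P near its EC80; inhibitor potency meaning antagonism of receptor activation by the natural agonist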
Chain of Sphingosine 1-phosphate receptor 1 (P21453 whole entry): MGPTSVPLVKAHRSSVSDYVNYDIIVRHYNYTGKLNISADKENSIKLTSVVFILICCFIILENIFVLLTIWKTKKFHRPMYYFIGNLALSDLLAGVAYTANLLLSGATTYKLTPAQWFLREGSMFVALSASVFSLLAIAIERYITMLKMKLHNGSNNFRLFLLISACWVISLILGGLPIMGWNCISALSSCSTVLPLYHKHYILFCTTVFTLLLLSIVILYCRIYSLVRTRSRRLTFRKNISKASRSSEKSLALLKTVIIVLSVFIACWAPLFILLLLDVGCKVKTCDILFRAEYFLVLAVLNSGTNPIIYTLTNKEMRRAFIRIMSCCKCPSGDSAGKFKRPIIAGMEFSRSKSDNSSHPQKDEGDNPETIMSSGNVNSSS

Streptococcus = assay: Group A Streptococcus viability loss, dose response, counter-screen for streptokinase expression inhibitor project, luminescence, BacTiterGlo (AID 1915); assay type: functional, organism-based;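 further: potency for reduction of bacterial viability or growth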
[13] = Luminescence Cell-Based Dose Retest to Confirm Inhibitors of Cancer Stem Cells. [Related pubchem assays (depositor defined):AID2717, AID2721]; assay type: functional; settings: Homo sapiens
[14] = target: T5, Replicative DNA helicase DnaB (Mycobacterium tuberculosis, UniProt P9WMR3); assay: DnaB intein splicing inhibitors, dose response, biochemical, cell-free fluorescence (AID 449749); assay type: functional
T5 sequence (P9WMR3 whole entry): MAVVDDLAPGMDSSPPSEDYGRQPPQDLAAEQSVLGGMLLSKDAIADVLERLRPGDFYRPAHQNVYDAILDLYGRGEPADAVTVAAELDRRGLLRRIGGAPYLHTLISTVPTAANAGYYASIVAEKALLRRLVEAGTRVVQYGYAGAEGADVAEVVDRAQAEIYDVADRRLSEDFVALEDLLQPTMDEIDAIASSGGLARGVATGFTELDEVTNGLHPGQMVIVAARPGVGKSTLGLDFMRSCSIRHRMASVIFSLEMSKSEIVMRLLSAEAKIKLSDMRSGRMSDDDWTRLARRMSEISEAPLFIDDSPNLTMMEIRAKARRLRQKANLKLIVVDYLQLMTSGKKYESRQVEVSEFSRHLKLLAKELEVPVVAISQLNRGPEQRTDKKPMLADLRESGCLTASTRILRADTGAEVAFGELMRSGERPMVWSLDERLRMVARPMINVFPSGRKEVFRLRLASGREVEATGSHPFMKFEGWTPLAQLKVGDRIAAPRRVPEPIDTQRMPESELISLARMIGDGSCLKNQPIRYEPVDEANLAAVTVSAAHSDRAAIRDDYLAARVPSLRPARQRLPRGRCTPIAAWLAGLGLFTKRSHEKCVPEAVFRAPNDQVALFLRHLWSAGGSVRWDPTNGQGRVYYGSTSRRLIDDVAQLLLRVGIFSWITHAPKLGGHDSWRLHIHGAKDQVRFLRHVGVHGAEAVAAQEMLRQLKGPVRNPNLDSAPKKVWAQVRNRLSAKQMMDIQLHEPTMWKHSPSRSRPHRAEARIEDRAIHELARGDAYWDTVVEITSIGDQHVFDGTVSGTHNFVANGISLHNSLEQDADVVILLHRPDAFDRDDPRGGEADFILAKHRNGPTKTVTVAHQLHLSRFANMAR

Protein RecA = target: T6, Protein RecA (Mycobacterium tuberculosis, UniProt P9WHJ3); assay: Fluorescence Cell-Free Homogeneous Dose Retest to Identify Inhibitors of RecA-Intein Splicing Activity. [Related pubchem assays (depositor defined):AID2097, AID2223, AID489010, AID492950]; assay type: functional
T6 sequence (P9WHJ3 whole entry): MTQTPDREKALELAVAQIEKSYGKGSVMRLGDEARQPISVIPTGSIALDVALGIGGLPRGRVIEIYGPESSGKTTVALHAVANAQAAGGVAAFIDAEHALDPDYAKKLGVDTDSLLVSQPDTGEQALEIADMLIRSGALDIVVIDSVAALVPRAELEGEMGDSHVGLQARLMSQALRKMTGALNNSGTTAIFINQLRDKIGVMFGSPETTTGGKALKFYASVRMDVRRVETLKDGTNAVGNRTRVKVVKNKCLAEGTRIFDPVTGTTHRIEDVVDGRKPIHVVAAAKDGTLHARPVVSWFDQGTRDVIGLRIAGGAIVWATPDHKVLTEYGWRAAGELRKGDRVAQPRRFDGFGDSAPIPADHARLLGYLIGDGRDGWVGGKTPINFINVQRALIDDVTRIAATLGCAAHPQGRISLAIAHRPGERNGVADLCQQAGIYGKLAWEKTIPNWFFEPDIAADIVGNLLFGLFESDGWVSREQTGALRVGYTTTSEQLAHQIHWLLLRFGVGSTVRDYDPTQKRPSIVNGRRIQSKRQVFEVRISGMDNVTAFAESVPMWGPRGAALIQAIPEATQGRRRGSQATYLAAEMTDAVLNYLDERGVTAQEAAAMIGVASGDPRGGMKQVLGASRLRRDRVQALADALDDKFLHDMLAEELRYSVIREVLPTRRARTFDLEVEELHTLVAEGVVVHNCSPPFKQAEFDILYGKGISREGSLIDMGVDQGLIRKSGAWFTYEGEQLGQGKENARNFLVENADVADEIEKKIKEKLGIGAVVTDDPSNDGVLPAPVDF

Melanocortin receptor 4 = Melanocortin receptor 4 (Homo sapiens, UniProt P32245); assay: MC4R antagonist potency on cAMP, dose response, cell-based, TR-FRET, biased antagonists (AID 602298); assay type: functional;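 further: antagonist potency against agonist-stimulated cAMP production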
[15] = nonselective inhibitors of cellular cAMP signaling, dose response, counter-screen for MC4R biased antagonist project, cell-based, TR-FRET cAMP detection (AID 602305); assay type: functional;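 further: U2OS cells stimulated with forskolin near its EC80 as the cAMP inducer; potency is for inhibition of forskolin-stimulated cAMP signaling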
[16] = target: Serine/threonine-protein kinase pim-1 (Homo sapiens, UniProt P11309); assay type: functional
[17] = target: Cell division cycle 7-related protein kinase (Homo sapiens, UniProt O00311); assay type: functional;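 further: value obtained from a kinome-wide kinase panel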
[18] = target: Homeodomain-interacting protein kinase 2 (Homo sapiens, UniProt Q9H2X6); assay type: functional;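 further: measured within a kinome-wide kinase profiling panel, HIPK2 being one panel member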
Chain of Homeodomain-interacting protein kinase 2 (Q9H2X6 whole entry): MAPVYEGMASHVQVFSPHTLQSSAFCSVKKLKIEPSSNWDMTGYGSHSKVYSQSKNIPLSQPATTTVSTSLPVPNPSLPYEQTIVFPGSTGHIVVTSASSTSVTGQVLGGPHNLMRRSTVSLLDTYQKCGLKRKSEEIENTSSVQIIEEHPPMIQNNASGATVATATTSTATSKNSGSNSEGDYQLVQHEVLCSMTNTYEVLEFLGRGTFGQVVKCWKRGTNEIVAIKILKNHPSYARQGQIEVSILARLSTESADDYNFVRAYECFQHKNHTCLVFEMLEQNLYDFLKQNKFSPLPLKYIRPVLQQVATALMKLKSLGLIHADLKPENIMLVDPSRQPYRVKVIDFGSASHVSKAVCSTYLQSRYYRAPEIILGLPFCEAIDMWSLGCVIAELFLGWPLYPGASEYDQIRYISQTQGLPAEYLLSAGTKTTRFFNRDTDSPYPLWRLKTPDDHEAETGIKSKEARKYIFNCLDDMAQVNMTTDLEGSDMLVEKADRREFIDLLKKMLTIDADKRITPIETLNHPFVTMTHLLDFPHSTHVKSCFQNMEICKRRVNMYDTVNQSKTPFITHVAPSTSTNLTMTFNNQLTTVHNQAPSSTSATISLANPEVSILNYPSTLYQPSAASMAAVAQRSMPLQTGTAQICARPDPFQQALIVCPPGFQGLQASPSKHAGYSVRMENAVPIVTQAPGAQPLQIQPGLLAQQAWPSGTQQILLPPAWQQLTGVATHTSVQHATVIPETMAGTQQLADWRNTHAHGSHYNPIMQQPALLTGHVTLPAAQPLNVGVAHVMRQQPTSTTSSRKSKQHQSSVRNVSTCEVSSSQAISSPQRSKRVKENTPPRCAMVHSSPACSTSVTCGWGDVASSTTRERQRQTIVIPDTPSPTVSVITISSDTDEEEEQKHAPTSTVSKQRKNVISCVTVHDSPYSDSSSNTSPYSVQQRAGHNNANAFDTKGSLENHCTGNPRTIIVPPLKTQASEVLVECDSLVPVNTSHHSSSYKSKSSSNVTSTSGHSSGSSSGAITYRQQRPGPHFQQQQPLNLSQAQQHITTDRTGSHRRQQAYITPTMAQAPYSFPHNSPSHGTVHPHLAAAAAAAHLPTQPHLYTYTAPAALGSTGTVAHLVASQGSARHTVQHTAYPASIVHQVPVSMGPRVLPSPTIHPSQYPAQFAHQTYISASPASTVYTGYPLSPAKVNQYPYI

[19] = target: MAP kinase-interacting serine/threonine-protein kinase 2 (Homo sapiens, UniProt Q9HBH9); assay type: functional
Chain of MAP kinase-interacting serine/threonine-protein kinase 2 (Q9HBH9 whole entry): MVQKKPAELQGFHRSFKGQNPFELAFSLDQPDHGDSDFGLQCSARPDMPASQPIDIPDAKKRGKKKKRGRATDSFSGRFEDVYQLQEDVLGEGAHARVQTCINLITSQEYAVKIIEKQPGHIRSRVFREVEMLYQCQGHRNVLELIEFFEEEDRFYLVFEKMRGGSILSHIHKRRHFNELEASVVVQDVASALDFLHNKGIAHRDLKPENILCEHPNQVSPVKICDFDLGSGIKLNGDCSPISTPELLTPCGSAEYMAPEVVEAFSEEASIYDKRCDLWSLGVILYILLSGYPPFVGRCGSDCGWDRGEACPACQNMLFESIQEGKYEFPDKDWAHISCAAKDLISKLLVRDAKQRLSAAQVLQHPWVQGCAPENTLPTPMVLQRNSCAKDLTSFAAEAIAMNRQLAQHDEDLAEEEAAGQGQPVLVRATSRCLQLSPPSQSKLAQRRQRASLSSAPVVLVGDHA

[20] = target: Interleukin-1 receptor-associated kinase 4 (Homo sapiens, UniProt Q9NWZ3); assay type: functional
[21] = target: Glycogen synthase kinase-3 beta (Homo sapiens, UniProt P49841); assay type: functional;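 further: value comes from a broad kinome profiling panel, with GSK3B as the panel member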
[22] = target: cAMP-dependent protein kinase catalytic subunit alpha (Homo sapiens, UniProt P17612); assay type: functional
[23] = target: Dual specificity protein kinase CLK4 (Homo sapiens, UniProt Q9HAZ1); assay type: functional
[24] = target: Mitogen-activated protein kinase kinase kinase kinase 4 (Homo sapiens, UniProt O95819); assay type: functional
Chain of Mitogen-activated protein kinase kinase kinase kinase 4 (O95819 whole entry): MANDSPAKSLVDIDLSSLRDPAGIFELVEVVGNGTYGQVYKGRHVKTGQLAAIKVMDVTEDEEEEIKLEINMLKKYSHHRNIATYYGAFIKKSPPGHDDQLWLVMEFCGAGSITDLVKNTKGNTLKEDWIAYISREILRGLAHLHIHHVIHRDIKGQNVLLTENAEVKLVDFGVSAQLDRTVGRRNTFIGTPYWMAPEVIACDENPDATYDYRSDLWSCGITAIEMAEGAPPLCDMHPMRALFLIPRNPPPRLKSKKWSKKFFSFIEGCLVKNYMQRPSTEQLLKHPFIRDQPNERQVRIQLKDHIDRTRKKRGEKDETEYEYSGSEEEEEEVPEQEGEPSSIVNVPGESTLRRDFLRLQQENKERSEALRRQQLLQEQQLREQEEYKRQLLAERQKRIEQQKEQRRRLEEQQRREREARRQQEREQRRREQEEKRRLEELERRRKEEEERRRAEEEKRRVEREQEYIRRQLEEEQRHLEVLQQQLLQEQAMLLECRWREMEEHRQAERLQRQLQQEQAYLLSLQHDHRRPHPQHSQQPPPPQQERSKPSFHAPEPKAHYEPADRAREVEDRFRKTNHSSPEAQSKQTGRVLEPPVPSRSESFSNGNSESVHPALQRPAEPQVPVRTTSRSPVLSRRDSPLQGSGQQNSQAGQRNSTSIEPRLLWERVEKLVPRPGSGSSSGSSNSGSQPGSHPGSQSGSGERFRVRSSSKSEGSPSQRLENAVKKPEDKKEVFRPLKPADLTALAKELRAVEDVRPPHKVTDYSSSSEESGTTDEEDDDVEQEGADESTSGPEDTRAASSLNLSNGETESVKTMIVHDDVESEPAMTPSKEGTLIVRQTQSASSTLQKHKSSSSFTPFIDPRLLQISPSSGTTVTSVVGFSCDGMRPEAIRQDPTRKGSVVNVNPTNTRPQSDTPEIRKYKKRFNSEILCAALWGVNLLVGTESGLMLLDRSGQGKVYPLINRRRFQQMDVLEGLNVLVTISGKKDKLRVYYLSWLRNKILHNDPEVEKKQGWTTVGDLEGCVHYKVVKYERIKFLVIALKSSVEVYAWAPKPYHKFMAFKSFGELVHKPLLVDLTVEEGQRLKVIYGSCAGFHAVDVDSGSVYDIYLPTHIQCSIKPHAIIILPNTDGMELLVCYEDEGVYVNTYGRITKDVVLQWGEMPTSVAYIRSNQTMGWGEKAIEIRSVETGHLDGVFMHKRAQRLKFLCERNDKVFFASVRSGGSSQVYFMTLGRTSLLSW

Aurora kinase A = Aurora kinase A (Homo sapiens, UniProt O14965); assay type: functional;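 further: value from the Navigating the Kinome kinase panel profiling, panel entry STK6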
Chain of Aurora kinase A (O14965 whole entry): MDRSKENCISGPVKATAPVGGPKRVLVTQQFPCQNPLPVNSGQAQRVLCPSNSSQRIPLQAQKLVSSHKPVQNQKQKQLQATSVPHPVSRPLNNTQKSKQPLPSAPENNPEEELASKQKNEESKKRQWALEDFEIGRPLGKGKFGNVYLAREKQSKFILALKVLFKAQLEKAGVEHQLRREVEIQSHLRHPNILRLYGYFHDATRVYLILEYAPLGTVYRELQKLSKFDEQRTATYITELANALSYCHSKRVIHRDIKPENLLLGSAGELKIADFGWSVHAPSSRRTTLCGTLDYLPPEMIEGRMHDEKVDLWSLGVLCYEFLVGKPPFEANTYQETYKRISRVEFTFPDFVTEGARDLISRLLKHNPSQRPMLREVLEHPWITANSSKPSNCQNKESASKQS

[25] = target: Serine/threonine-protein kinase Chk1 (Homo sapiens, UniProt O14757); assay type: functional;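 further: measured as one member of a kinome-wide kinase profiling panel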
[26] = inhibitors of intracellular T. cruzi replication, confirmation, NIH3T3 host cells, beta-gal luminescence (AID 2044); assay type: functional, cell-based;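 further: intracellular parasites grown in NIH/3T3 mouse fibroblasts as host cells; luminescent beta-galactosidase reporter signal from transgenic T. cruzi replicating inside host cells; inhibitors lower the luminescence signal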
[27] = cytotoxicity toward NIH3T3 fibroblasts, dose response, counter-screen, cell-based, ATP luminescence, mouse fibroblasts (AID 2010); assay type: functional;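 further: cells exposed to compound for about 90 hours before reading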
[28] = target: Botulinum neurotoxin type A (Clostridium botulinum (strain Hall / ATCC 3502 / NCTC 13319 / Type A), UniProt P0DPI1); assay: High-throughput multiplex microsphere dose response for inhibitors of toxin protease, specifically Botulinum neurotoxin light chain A protease, compounds from Cherry Pick 02.; assay type: functional; settings: read-out: EC50_MICROM
Chain of Botulinum neurotoxin type A (P0DPI1 2-448 limits assumed): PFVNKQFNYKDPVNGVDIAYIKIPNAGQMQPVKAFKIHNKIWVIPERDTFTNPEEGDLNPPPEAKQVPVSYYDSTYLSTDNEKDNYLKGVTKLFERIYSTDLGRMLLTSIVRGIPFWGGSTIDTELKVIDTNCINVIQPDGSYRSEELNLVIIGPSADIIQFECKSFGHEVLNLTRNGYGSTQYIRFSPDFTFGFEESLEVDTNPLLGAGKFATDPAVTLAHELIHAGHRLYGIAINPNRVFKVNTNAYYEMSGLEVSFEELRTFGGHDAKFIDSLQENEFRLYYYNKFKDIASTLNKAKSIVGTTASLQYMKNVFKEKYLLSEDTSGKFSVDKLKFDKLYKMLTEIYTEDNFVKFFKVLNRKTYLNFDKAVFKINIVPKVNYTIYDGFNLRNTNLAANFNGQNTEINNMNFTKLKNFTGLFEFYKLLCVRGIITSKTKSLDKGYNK

Lethal factor = Lethal factor (Bacillus anthracis, UniProt P15917); assay: High-throughput multiplex microsphere dose response for inhibitors of toxin protease, specifically Lethal Factor protease, compounds from Cherry Pick 02.; assay type: functional; settings: read-out: EC50_MICROM
[29] = target: Botulinum neurotoxin type F (Clostridium botulinum, UniProt P30996); assay: High-throughput multiplex microsphere dose response for inhibitors of toxin protease, specifically Botulinum neurotoxin light chain F protease, compounds from Cherry Pick 02.; assay type: functional; settings: read-out: EC50_MICROM

## Clc1cc(I)cc(Cl)c1N=C1NCCN1
[1]
  IC50: 1.12 µM (active)
[2]
  IC50: 0.843 µM (active)

## O=C1NC(Cc2ccc(O)cc2)c2nc3ccccc3c(=O)n2-c2ncccc21 (stereo not given)
[3]
  AC50: < 0.009 µM (active)
[4]
  AC50: 0.009 µM (active)

## O=c1c(Oc2ccc3ccccc3c2)c(Cl)cnn1Cc1cccc2ccccc12
[5]
  IC50: > 20 µM (inactive)
[6]
  IC50: > 20 µM (inactive)

## O=[N+]([O-])c1cc(S(=O)(=O)C(F)(F)F)ccc1Sc1nc2ccccc2[nH]1
[7]
  EC50: 5.93 µM (active)
Streptokinase A
  EC50: > 150 µM (not active)
[8]
  EC50: 7.22 µM (active)
[9]
  IC50: 0.77 µM (active)
[10]
  EC50: 6.72 µM (active)
[11]
  IC50: 1.29 µM (active)
[12]
  IC50: 34.3 µM (not active)
Streptococcus
  EC50: 11.9 µM (active)
[13]
  AC50: 4.04 µM (active)
[14]
  AC50: 2.83 µM (active)
Protein RecA
  EC50: 0.774 µM (active)
Melanocortin receptor 4
  IC50: 7.65 µM (active)
[15]
  IC50: > 64.6 µM (inactive)

## Nc1n[nH]c2ccc(-c3nnn(Cc4ccccc4)c3C3CC3)cc12
[16]
  Ki: 3.98 µM (active)
[17]
  Ki: 0.0316 µM (active)
[18]
  Ki: 2 µM (active)
[19]
  Ki: 0.398 µM (active)
[20]
  Ki: > 10 µM (inactive)
[21]
  Ki: 0.00794 µM (active)
[22]
  Ki: 0.631 µM (active)
[23]
  Ki: 0.0251 µM (active)
[24]
  Ki: 1 µM (active)

## CN(C)c1ncnc2[nH]ncc12
Aurora kinase A
  Ki: 12.6 µM (active)
[25]
  Ki: 5.01 µM (active)

## Cc1cc2ccccc2n1CCNC(=O)COc1ccccc1
[26]
  EC50: 1.16 µM (active)
[27]
  EC50: > 30 µM (not active)
[28]
  EC50: 4.9 µM (active)
Lethal factor
  EC50: 1.4 µM (active)
[29]
  EC50: > 20 µM (inactive)
